Earlier results as cited in publication PMC12697872, “Rethinking the AI Paradigm for Solubility Prediction of Drug‑Like Compounds with Dual‐Perspective Modeling and Experimental Validation” (Advanced Science, 2025).

Conditions: discarded ambiguous entries of DrugBank database; ref DrugBank database (version 5.1.12) 24; cited from earlier work

Row | Structure (SMILES) | Experimental solubility (descriptive)
1 | Oc1ccc2c(c1)[C@@]13CCCC[C@@]1(O)[C@@H](C2)N(CC1CCC1)CC3 [42408-82-2] | Moderate

Same assay, conditions: experimental aqueous solubility as logS, sheet "DrugBank" of Supplement 2; ref DrugBank; cited from earlier work

Row | Structure (SMILES) | ex_logS
2 | CN/C(=N/CCSCc1nc[nH]c1C)NC#N [Cimetidine] | -1.43
3 | CCOC(=O)c1ccc(O)cc1 [ethyl-p-hydroxybenzoate] | -2.35
4 | CC(C)(C)NCC(O)COc1cccc2c1CC(O)C(O)C2 (stereo not drawn) [Nadolol] | -1.57
5 | Cn1c(=O)c2[nH]cnc2n(C)c1=O [Theophylline] | -1.389
6 | N[C@@H](Cc1c[nH]cn1)C(=O)O [Histidine] | -0.5318
7 | Nc1ccn([C@@H]2CS[C@H](CO)O2)c(=O)n1 [Lamivudine] | -0.5152
8 | Nc1ccn([C@H]2CC[C@@H](CO)O2)c(=O)n1 [Zalcitabine] | -0.4416
9 | C=CCC1(C(C)CCC)C(=O)N=C(S)NC1=O (stereo not drawn) [Thiamylal] | -3.7117
10 | CC(=O)CC(c1ccccc1)c1c(O)c2ccccc2oc1=O (stereo not drawn) [warfarin] | -4.26
11 | CCCC(C)(COC(N)=O)COC(N)=O [Meprobamate] | -1.667
12 | CCCNC(C)C(=O)Nc1ccccc1C (stereo not drawn) [Prilocaine] | -2.61
13 | CCN(CC)C(=O)N1CCN(C)CC1 [Diethylcarbamazine] | -0.4954
14 | O=C(O)c1ccc(O)cc1O [2,4-Dihydroxybenzoic Acid] | -1.426
15 | CC(OC(=O)NCC1(CC(=O)O)CCCCC1)OC(=O)C(C)C (stereo not drawn) [Gabapentin enacarbil] | -2.819
16 | Cc1ccc(/C(=C\CN2CCCC2)c2ccccn2)cc1 [Triprolidine] | -3.57
17 | CC(=O)Oc1ccccc1C(=O)O [Acetylsalicylic acid] | -1.6122
18 | C=CCc1ccccc1OCC(O)CNC(C)C (stereo not drawn) [Alprenolol] | -2.659
19 | CCC(N)Cc1c[nH]c2ccccc12 (stereo not drawn) [Etryptamine] | -2.567
20 | Cc1ccccc1N1C(=O)c2cc(S(N)(=O)=O)c(Cl)cc2NC1C (stereo not drawn) [Metolazone] | -3.783
21 | CC(C)NCC(O)COc1cccc2ccccc12 (stereo not drawn) [Propranolol] | -3.624
22 | C[C@]12C[C@H](O)[C@H]3[C@@H](CCC4=CC(=O)CC[C@@]43C)[C@@H]1CC[C@@H]2C(=O)CO [corticosterone] | -3.24

Same assay, conditions: experimental aqueous solubility as logS, sheet "DrugBank"; ref DrugBank database; cited from earlier work

Row | Structure (SMILES) | ex_logS
23 | O=C(O)c1cccnc1Nc1cccc(C(F)(F)F)c1 [Niflumic acid] | -4.172
24 | COC(=O)N(C)c1c(N)nc(-c2nn(Cc3ccccc3F)c3ncccc23)nc1N [Riociguat] | -5.024
25 | CC[C@@H](C(N)=O)N1CCCC1=O [Levetiracetam] | 0.786
26 | C[C@H](Cn1cnc2c(N)ncnc21)OCP(=O)(O)O [Tenofovir] | -1.3311
27 | N[C@@H](Cc1c[nH]c2ccccc12)C(=O)O [Tryptophan] | -1.183
28 | O=C(OCCO)c1ccccc1O [Glycol salicylate] | -1.143
29 | COc1cc2c(c(OC)c1OC)-c1ccc(OC)c(=O)cc1[C@@H](NC(C)=O)CC2 [Colchicine] | -0.9632
30 | Cc1ccnc2c1ccc1c(C)ccnc12 [4,7-Dimethyl-[1,10]Phenanthroline] | -3.968
31 | COc1cc(NCc2ccc3nc(N)nc(N)c3c2C)cc(OC)c1OC [Trimetrexate] | -4.071
32 | Nc1ncn([C@H]2C[C@H](O)[C@@H](CO)O2)c(=O)n1 [Decitabine] | -1.317
33 | O=C(O)c1cc(=O)c2c(OCC(O)COc3cccc4oc(C(=O)O)cc(=O)c34)cccc2o1 [Cromoglicic acid] | -3.348
34 | OC[C@H]1O[C@@H](c2ccc(Cl)c(Cc3ccc(O[C@H]4CCOC4)cc3)c2)[C@H](O)[C@@H](O)[C@@H]1O [Empagliflozin] | -3.207
35 | CNCCC=C1c2ccccc2CCc2ccccc21 [Nortriptyline] | -5.481
36 | CO[C@H]1/C=C/O[C@@]2(C)Oc3c(C)c(O)c4c(O)c(c(/C=N/N5CCN(C)CC5)c(O)c4c3C2=O)NC(=O)/C(C)=C\C=C\[C@H](C)[C@H](O)[C@@H](C)[C@@H](O)[C@@H](C)[C@H](OC(C)=O)[C@@H]1C [Rifampicin] | -2.769
37 | C=CC(=O)N1CCN(c2nc(=O)n(-c3c(C)ccnc3C(C)C)c3nc(-c4c(O)cccc4F)c(F)cc23)[C@@H](C)C1 [Sotorasib] | -4.272
38 | CCOC(=O)[C@H](CCc1ccccc1)N[C@@H](C)C(=O)N1CCC[C@H]1C(=O)O [Enalapril] | -1.361
39 | Cc1c(OCC(F)(F)F)ccnc1C[S@@+]([O-])c1nc2ccccc2[nH]1 [Dexlansoprazole] | -3.245
40 | c1cnc2c(c1)ccc1cccnc12 [1,10-Phenanthroline] | -1.826
41 | CC(=O)OCC1=C(C(=O)O)N2C(=O)[C@@H](NC(=O)CSc3ccncc3)[C@H]2SC1 [Cefapirin] | -2.614
42 | CN1CCN(C(c2ccccc2)c2ccccc2)CC1 [Cyclizine] | -2.4255
43 | O=C(O)c1cccnc1C(=O)O [Quinolinic Acid] | -1.182

Row | Structure (SMILES) | ex_logS
44 | CCC1(C)CC(=O)NC1=O (stereo not drawn) [Ethosuximide] | -0.5564
45 | CCOC(=O)[C@H](CCc1ccccc1)N[C@H]1CCc2ccccc2N(CC(=O)O)C1=O [Benazepril] | -1.349
46 | C[C@@H]1O[C@@H](O[C@H]2C[C@@H](O)[C@]3(CO)[C@H]4[C@H](O)C[C@]5(C)[C@@H](C6=CC(=O)OC6)CC[C@]5(O)[C@@H]4CC[C@]3(O)C2)[C@H](O)[C@H](O)[C@H]1O [Ouabain] | -1.754
47 | Cc1nnc2n1-c1ccc(Cl)cc1C(c1ccccc1Cl)=NC2 [Triazolam] | -4.879
48 | N[C@@H](Cc1ccccc1)C(=O)O [Phenylalanine] | -0.7882
49 | Nc1nc2c(ncn2CCC(CO)CO)c(=O)[nH]1 [Penciclovir] | -2.173
50 | Cc1nc2n(c(=O)c1CCN1CCC(c3noc4cc(F)ccc34)CC1)CCCC2 [Risperidone] | -2.246
51 | NCC(CC(=O)O)c1ccc(Cl)cc1 (stereo not drawn) [Baclofen] | -1.672
52 | C[C@]12CC[C@H]3[C@@H](CCC4=CC(=O)CC[C@@]43C)[C@@H]1CC[C@@H]2O [Testosterone] | -4.091
53 | CCCCC(C)(O)C/C=C/[C@H]1[C@H](O)CC(=O)[C@@H]1CCCCCCC(=O)OC (mixture of isomers) [Misoprostol] | -2.379
54 | CCCc1c2oc(C(=O)O)cc(=O)c2cc2c(=O)cc(C(=O)O)n(CC)c12 [Nedocromil] | -3.4084
55 | CCCCN1CCCCC1C(=O)Nc1c(C)cccc1C (stereo not drawn) [Bupivacaine] | -3.22
56 | OCCc1ccccc1 [Phenylethyl alcohol] | -0.7406
57 | CNCCCC1c2ccccc2C=Cc2ccccc21 [Protriptyline] | -5.404
58 | NS(=O)(=O)c1cc2c(cc1C(F)(F)F)NC(Cc1ccccc1)NS2(=O)=O (stereo not drawn) [Bendroflumethiazide] | -3.591
59 | C[C@]12CCC(=O)C=C1CC[C@@H]1[C@@H]2CC[C@@]2(C)[C@H]1CC[C@]2(C)O [Methyltestosterone] | -3.95
60 | O=C(O)Cc1ccccc1Nc1c(Cl)cccc1Cl [Diclofenac] | -5.097
61 | Nc1ncnc2c1ncn2[C@@H]1O[C@H](COP(=O)(O)OP(=O)(O)OP(=O)(O)O)[C@@H](O)[C@H]1O [ATP] | 0.2948
62 | CCCCOC(=O)c1ccc(N)cc1 [Butamben] | -3.14
63 | CCC(=O)c1ccc2c(c1)N(CC(C)N(C)C)c1ccccc1S2 (stereo not drawn) [Propiomazine] | -5.875
